# Tests used:
# [1] = target: recombinant human full-length Bruton Agammaglobulinemia Tyrosine Kinase (Btk) (Homo sapiens (Human), UniProt Q06187); assay: Btk Kinase Inhibition Assay (fluorescence polarization); type: biochemical; conditions: 10 μM ATP, 250 μM substrate, 60 minutes; Ki calculated from IC50 using the Cheng-Prusoff equation
# Procedure, shortened: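 His-tagged full-length enzyme reacted 60 min at room temperature with 250 μM substrate, 10 μM ATP and compound dilutions; stopped with EDTA/detection reagents, read by fluorescence polarization. IC50 from nonlinear fit, converted to Ki via Cheng-Prusoff using experimentally determined ATP Km.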
# [2] = test system: Splenocytes (B cell proliferation stimulated with anti-IgM F(ab′)2); assay: Splenic Cell Proliferation Assay; type: cell-based; conditions: Mus musculus, Splenocyte, 72 h, CD1 mouse splenocytes, 2.5 ug/ml anti-IgM F(ab′)2 for 72 h, Cell Titer-Glo; read-out: EC50 (nM), Inhibition of splenic cell proliferation
# Procedure, shortened: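 Splenocytes from 6-week male CD1 mice, adherent cells removed, seeded at 50,000 cells/well and pre-treated 1 h with compound curves (top 10,000 nM). Stimulated with 2.5 ug/ml anti-IgM F(ab′)2 for 72 h; proliferation by CellTiter-Glo luminescence, EC50 relative to vehicle controls.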
# Balb/c mice = assay: Mouse Arthus; type: in vivo; conditions: oral gavage at 30 mg/kg, 1 h pre-treatment
# Method: Mouse Arthus studies were conducted as reported in Braselmann S, Taylor V, Zhao H, Wang S, Sylvain C, Baluom M, Qu K, Herlaar E, Lau A, Young C, Wong B R, Lovell S, Sun T, Park G, Argade A, Jurcevic S, Pine P, Singh R, Grossbard E B, Payan D G, Masuda E S: R406 an orally available spleen tyrosine kinase inhibitor blocks fc receptor signaling and reduces immune-complex mediated inflammation. J Pharmacol Exp Ther, 2006, 319:998-1008.
# In summary, female Balb/c mice (6-7 weeks on arrival) were habituated to the animal facility for at least 4 days. On the day of the experiment, animals were pre-treated (t=minus 1 h) with compound or vehicle alone by gavage (PO). At t=0, animals were injected intravenously (IV; 0.1 mL/mouse) with saline containing chicken ovalbumin and Evan's blue (10 mg/mL of each). Ten minutes later (t=10 min), animals were anesthesized with isoflurane, the dorsal surface was shaved and rabbit anti-chicken ovalbumin antibody was then injected intradermally at one site on the right side of the animal (25 μg in 30 μL). The same amount of isotype control antibody was then injected on the left side.
# The animals were then returned to their home cage and skin punches (8 mm) were collected from each injection site four hours later. The samples were placed in 1 mL formamide overnight at 80 degrees C. (1 skin biopsy per 1 mL formamide in a glass tube). The amount of Evan's blue in the formamide solution was then assessed by spectrophotometry (630 nm) as a measure of serum extravasation into the dermis.
# B10R111 mice = assay: Mouse CIA model; type: in vivo; conditions: oral gavage at 30 mg/kg (BID)
# Method: Mouse CIA model was performed using the methods described by Trentham D E, Townes A S, Kang A H. Autoimmunity to Type II Collagen: An Experimental Model of Arthritis. J Exp Med 1977; 857-868, and Bendele A M. Animal Models of Rheumatoid Arthritis. J Musculoskel Interact 2001; 377-385.
# In summary, male B10R111 mice (7-9 wks on arrival) were habituated to the animal facility for at least 4 days. On experimental day 0 mice were anaesthetized with isoflurane and the dorsal surface was shaved. Collagen, emulsified in Freund's complete adjuvant (CFA) supplemented with additional mycobacterium tuberculosis (TB) H37Ra, was injected intradermally at the base of the tail (0.15 mL/animal; 2 mg/mL collagen and 2.5 mg/mL TB in CFA). This CFA treatment was repeated on day 15.
# From day 15 to the end of the study animals were scored daily for signs of arthritis. On the first day of disease (RA Day 1) animals were recruited to the study and grouped using a balanced design based on arthritis score. Once recruited, animals were weighed and dosed twice daily by gavage (PO, BID). Recruited animals were then scored twice a week on RA days 1, 5, 8 and 12. At the end of the study (RA day 12) animals were weighed and scored.
# Chain of recombinant human full-length Bruton Agammaglobulinemia Tyrosine Kinase (Btk) (Q06187 whole entry): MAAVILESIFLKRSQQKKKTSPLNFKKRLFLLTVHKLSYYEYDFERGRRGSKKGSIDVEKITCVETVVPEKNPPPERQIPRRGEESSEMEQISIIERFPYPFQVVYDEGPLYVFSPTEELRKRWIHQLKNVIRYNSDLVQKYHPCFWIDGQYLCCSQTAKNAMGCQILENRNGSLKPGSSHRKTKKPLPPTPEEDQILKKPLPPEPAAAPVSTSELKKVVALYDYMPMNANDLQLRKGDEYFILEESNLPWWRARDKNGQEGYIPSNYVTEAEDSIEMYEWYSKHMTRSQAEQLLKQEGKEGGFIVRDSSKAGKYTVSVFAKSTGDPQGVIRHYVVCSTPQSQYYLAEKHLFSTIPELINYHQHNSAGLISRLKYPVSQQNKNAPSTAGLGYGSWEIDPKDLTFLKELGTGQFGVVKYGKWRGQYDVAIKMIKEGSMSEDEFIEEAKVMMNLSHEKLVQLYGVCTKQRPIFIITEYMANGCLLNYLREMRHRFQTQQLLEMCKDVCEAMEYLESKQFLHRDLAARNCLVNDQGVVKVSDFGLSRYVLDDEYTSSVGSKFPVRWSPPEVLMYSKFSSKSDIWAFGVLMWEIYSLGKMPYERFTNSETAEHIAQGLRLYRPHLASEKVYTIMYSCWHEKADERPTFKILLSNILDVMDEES
SMILES,Ki [1] [nM],EC50 [2] [nM],efficacy in mouse Arthus (Evan's blue extravasation) (Balb/c mice),efficacy in mouse CIA model (arthritis score) (B10R111 mice)
Cc1ccc(COc2cc(F)cc(Oc3ccc(-c4nn(C(C)C)c5ncnc(N)c45)cc3)c2)cn1 [Compound 85],< 100,< 100,demonstrated efficacy,demonstrated efficacy
Cc1ncc(COc2cc(F)cc(Oc3ccc(-c4nn(C(C)C)c5ncnc(N)c45)cc3)c2)cn1 [Compound 102],< 100,< 100,demonstrated efficacy,demonstrated efficacy
